{"source": "patent US20250360160A1", "about": "“NEW MEDICAL USE OF TAFOXIPARIN” (DILAFOR AB, priority 2022, published 2025)", "tested_on": "factor IIa", "sequence (P01008 33-464)": "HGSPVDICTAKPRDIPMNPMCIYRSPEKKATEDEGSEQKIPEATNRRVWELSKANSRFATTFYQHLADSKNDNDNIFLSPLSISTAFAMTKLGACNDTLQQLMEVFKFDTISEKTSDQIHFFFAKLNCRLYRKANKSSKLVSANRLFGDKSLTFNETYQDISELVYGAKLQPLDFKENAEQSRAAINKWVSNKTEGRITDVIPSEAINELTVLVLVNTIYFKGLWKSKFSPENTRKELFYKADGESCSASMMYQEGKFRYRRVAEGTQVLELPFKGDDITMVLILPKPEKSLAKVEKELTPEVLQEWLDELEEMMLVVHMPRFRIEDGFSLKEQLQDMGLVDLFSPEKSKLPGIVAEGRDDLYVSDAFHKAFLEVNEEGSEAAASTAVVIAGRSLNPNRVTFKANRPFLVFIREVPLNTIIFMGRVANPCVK", "assay": "antifactor IIa activity", "type": "biochemical", "details": "definition of tafoxiparin", "data": [{"substance": "tafoxiparin", "values": [{"measurement": "antifactor IIa activity", "result": "less than 10 IU/mg"}]}]}
